Source: ChEMBL document CHEMBL3797202, “Novel Oxindole Sulfonamides and Sulfamides: EPZ031686, the First Orally Bioavailable Small Molecule SMYD3 Inhibitor” (ACS Med Chem Lett, 2016)

Columns and labels:
[1] = target: T1, Protein arginine N-methyltransferase 7 (Homo sapiens) (UniProt Q9NVM4); test: Inhibition of PRMT7 (unknown origin) at 10 uM relative to control
T1 sequence (whole entry): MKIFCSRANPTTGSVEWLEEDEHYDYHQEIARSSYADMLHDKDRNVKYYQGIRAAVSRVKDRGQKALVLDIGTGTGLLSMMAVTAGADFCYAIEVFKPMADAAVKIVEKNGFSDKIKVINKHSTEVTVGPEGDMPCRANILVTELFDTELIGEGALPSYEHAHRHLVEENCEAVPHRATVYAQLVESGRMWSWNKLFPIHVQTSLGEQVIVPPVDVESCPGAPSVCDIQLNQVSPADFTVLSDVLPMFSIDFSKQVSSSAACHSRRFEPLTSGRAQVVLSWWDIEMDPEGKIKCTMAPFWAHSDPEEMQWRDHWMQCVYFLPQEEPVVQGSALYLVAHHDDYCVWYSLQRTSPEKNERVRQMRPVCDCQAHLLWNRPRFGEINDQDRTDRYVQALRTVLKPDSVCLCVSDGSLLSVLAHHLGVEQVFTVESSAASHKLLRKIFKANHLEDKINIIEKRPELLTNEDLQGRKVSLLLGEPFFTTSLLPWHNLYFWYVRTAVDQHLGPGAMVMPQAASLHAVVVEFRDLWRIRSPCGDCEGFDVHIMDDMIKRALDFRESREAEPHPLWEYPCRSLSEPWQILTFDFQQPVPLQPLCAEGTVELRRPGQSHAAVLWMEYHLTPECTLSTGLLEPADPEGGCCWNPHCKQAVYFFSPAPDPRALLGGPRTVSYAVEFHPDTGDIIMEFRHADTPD

[2] = target: T2, Histone-lysine N-methyltransferase SETD7 (Homo sapiens) (UniProt Q8WTS6); test: Inhibition of SETD7 (unknown origin) at 10 uM relative to control
T2 sequence (whole entry): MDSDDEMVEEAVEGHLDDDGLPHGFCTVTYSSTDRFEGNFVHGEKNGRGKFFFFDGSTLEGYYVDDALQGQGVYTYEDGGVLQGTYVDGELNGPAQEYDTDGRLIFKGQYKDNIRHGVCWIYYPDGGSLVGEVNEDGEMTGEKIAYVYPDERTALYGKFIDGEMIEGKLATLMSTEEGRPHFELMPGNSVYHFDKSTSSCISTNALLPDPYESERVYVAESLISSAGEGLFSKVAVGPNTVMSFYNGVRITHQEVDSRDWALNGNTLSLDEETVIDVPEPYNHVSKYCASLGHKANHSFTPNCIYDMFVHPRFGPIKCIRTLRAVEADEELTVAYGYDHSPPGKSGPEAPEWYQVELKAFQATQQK

[3] = target: T3, Histone-lysine N-methyltransferase EHMT1 (Homo sapiens) (UniProt Q9H9B1); test: Inhibition of EHMT1 (unknown origin) at 10 uM relative to control
T3 sequence (whole entry): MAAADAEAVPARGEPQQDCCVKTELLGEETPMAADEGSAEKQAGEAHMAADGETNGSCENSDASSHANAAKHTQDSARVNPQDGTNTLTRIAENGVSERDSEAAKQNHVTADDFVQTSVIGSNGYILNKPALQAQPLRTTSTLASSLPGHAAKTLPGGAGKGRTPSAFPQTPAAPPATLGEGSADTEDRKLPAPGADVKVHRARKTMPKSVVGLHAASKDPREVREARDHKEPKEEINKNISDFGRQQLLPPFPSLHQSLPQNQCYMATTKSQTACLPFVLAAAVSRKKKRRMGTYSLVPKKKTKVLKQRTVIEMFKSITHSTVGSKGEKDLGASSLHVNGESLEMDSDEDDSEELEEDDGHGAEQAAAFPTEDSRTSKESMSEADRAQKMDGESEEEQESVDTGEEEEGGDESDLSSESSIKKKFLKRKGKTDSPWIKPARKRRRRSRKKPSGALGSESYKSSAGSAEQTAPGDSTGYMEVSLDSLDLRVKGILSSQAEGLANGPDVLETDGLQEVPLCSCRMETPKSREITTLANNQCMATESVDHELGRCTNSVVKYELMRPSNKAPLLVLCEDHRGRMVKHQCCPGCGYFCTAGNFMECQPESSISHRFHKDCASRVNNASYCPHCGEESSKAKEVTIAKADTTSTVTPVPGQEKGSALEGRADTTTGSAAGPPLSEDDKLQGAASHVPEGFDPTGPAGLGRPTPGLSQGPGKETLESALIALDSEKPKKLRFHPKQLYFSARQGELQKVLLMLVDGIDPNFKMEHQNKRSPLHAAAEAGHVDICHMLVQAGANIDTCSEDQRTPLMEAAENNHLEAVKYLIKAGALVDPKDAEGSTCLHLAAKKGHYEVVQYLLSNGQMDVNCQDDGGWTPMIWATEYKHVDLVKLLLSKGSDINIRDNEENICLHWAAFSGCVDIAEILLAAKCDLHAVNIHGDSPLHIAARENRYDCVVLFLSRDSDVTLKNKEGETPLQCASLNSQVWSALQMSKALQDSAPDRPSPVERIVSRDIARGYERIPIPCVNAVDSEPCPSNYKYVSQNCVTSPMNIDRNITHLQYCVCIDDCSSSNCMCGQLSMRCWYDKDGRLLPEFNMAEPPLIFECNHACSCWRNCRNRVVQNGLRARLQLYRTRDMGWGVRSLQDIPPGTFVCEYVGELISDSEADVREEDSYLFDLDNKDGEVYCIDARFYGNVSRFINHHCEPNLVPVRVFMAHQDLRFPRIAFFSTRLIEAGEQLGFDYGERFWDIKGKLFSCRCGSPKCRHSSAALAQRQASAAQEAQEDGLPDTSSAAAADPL

[4] = target: Protein arginine N-methyltransferase 6 (Homo sapiens) (UniProt Q96LA8); test: Inhibition of PRMT6 (unknown origin) at 10 uM relative to control
[5] = target: T4, Histone-lysine N-methyltransferase SUV39H1 (Homo sapiens) (UniProt O43463); test: Inhibition of SUV39H1 (unknown origin) at 10 uM relative to control
T4 sequence (whole entry): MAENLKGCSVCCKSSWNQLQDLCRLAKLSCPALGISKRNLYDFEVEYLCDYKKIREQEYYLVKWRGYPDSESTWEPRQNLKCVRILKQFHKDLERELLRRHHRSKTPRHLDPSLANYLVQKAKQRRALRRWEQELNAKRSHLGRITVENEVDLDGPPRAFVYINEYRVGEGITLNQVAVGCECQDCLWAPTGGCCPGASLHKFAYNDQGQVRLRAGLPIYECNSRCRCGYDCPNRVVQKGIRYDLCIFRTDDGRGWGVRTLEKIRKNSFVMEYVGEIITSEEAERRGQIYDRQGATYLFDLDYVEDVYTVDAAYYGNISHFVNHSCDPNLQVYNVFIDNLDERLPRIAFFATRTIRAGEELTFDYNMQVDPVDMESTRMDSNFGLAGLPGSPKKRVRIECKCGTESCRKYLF

[6] = target: N-lysine methyltransferase SMYD2 (Homo sapiens, UniProt Q9NRG4); test: Inhibition of SMYD2 (unknown origin)
N-lysine methyltransferase SMYD2, sequence (Q9NRG4 whole entry): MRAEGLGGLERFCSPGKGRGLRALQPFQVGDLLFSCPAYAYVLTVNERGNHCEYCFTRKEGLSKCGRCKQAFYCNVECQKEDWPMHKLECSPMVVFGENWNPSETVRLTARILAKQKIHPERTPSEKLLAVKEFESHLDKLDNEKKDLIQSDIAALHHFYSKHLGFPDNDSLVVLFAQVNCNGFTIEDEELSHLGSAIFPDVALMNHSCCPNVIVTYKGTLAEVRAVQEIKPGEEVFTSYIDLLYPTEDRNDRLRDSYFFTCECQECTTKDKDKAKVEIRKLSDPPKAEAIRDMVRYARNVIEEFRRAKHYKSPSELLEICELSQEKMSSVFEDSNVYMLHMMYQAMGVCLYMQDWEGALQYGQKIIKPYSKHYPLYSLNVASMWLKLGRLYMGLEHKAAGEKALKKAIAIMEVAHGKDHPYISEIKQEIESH

Protein arginine N-methyltransferase 6 (Homo sapiens), sequence (Q96LA8 whole entry, looked up): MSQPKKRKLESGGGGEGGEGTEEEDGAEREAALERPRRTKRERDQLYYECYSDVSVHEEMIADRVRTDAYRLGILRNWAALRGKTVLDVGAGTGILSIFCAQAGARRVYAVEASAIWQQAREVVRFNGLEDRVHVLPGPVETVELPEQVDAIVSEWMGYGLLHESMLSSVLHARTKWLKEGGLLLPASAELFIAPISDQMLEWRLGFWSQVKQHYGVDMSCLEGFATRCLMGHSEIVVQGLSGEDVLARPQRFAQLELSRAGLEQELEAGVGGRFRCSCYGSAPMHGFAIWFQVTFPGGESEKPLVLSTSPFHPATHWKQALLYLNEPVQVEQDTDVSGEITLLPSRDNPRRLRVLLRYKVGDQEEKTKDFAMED

| SMILES | inhibition [1] | inhibition [2] | inhibition [3] | inhibition [4] | inhibition [5] | IC50 [6] |
| --- | --- | --- | --- | --- | --- | --- |
| O=C1Cc2cc(C(=O)N[C@H]3C[C@H]4CC[C@@H](C3)N4S(=O)(=O)N3CCC(NCc4ccccc4)CC3)c(Cl)cc2N1 | < 30% | < 30% | < 30% | < 30% | < 30% | > 50 µM |
| O=C1Cc2cc(C(=O)N[C@H]3C[C@H]4CC[C@@H](C3)N4S(=O)(=O)CC3CCN(CCCC(F)(F)F)CC3)c(Cl)cc2N1 | < 30% | < 30% | < 30% | < 30% | < 30% | > 50 µM |
